Results: PubChem BioAssay (NCI)
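GI50 is the concentration that inhibits growth by half. At the TGI there is no net growth.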

How the values were obtained:
Assay in all cases: DTP human tumour cell line panel, 384-well format
HL-60(TB) leukemia = tested on: HL-60(TB) leukemia
ACHN renal = tested on: ACHN renal
SF-539 CNS = tested on: SF-539 CNS
DU-145 prostate = tested on: DU-145 prostate
MDA-MB-435 melanoma = tested on: MDA-MB-435 melanoma
T-47D breast = tested on: T-47D breast
UACC-62 melanoma = tested on: UACC-62 melanoma
HT29 colon = tested on: HT29 colon
A549 NSCLC = tested on: A549 NSCLC
CCRF-CEM leukemia = tested on: CCRF-CEM leukemia
HS 578T breast = tested on: HS 578T breast
NCI-H460 NSCLC = tested on: NCI-H460 NSCLC
NCI-H522 lung = tested on: NCI-H522 lung
COLO 205 colon = tested on: COLO 205 colon
EKVX NSCLC = tested on: EKVX NSCLC
RXF 393 renal = tested on: RXF 393 renal
NCI-H23 lung = tested on: NCI-H23 lung
SN12C renal = tested on: SN12C renal
LOX IMVI melanoma = tested on: LOX IMVI melanoma
786-0 renal = tested on: 786-0 renal
OVCAR-5 ovarian = tested on: OVCAR-5 ovarian
HCC-2998 colon = tested on: HCC-2998 colon
KM12 colon = tested on: KM12 colon
OVCAR-8 ovarian = tested on: OVCAR-8 ovarian
K-562 leukemia = tested on: K-562 leukemia
TK-10 renal = tested on: TK-10 renal
HOP-92 NSCLC = tested on: HOP-92 NSCLC
SF-268 CNS = tested on: SF-268 CNS
MCF7 breast = tested on: MCF7 breast

## C=CC(=O)N[C@H]1C=C(C)c2c(-c3cnc4ccccc4c3)c3c(N)ncnc3n2C1
HL-60(TB) leukemia
  TGI: 41.6 µM
ACHN renal
  GI50: 0.378 µM
  TGI: 18 µM
SF-539 CNS
  GI50: 15.1 µM
  TGI: 29.3 µM
DU-145 prostate
  GI50: 14.1 µM
  TGI: 44.9 µM
MDA-MB-435 melanoma
  GI50: 31 µM
  TGI: 87 µM
T-47D breast
  GI50: 11.5 µM
  TGI: 82 µM
UACC-62 melanoma
  GI50: 6 µM
  TGI: 18.9 µM
HT29 colon
  GI50: 17.5 µM
  TGI: 58.5 µM
A549 NSCLC
  GI50: 11.1 µM
  TGI: 30.2 µM
CCRF-CEM leukemia
  GI50: 14.9 µM
  TGI: 28.2 µM
HS 578T breast
  GI50: 12.8 µM
  TGI: 26.4 µM
NCI-H460 NSCLC
  GI50: 14.8 µM
  TGI: 30 µM
NCI-H522 lung
  GI50: 0.242 µM
  TGI: 9.32 µM
COLO 205 colon
  GI50: 26.2 µM
  TGI: 70.4 µM
EKVX NSCLC
  GI50: 0.312 µM
  TGI: 25.5 µM
RXF 393 renal
  GI50: 10 µM
  TGI: 27.7 µM
NCI-H23 lung
  GI50: 18.2 µM
  TGI: 40.6 µM
SN12C renal
  GI50: 15.6 µM
  TGI: 63.9 µM
LOX IMVI melanoma
  GI50: 14.7 µM
  TGI: 28.1 µM
786-0 renal
  GI50: 12.7 µM
  TGI: 28.8 µM
OVCAR-5 ovarian
  GI50: 26.2 µM
  TGI: 74.1 µM
HCC-2998 colon
  GI50: 19.3 µM
  TGI: 35.1 µM
KM12 colon
  GI50: 18.8 µM
  TGI: 36.3 µM
OVCAR-8 ovarian
  GI50: 15.8 µM
  TGI: 35 µM
K-562 leukemia
  GI50: 23.9 µM
  TGI: 80.6 µM
TK-10 renal
  GI50: 0.228 µM
  TGI: 10.6 µM
HOP-92 NSCLC
  GI50: 10.2 µM
  TGI: 33.1 µM
SF-268 CNS
  GI50: 15.1 µM
  TGI: 45.6 µM
MCF7 breast
  GI50: 19.7 µM
  TGI: > 100 µM
